# Source: patent US5006517A, “Treatment of Prader-Willi syndrome” (Progenics, Inc., priority 1989, dated 1991)
# Like-named read-outs stand apart in the source and are kept apart here.
# Columns and labels:
# [1] = Free alpha-ET blood levels after oral suspensions in eight normal human volunteers (crossover, RIA)
# Procedure: Each subject received all three drugs in randomized order with a one-week wash-out period between doses. Following an overnight fast, subjects received 200 mg of test drug suspended in approximately 6 oz. of apple juice. Blood samples were drawn immediately prior to drug administration and at 15 minutes, 30 minutes, 1, 2, 4, 8, 12 and 24 hours.
# [2] = in diet, diabetic, genetically obese mice; cited from earlier work
# [3] = normal individuals, endogenous metabolite of DHEA; cited from earlier work
# [4] = C57BL/KsJ-db/db mice; cited from earlier work
# [5] = Interconversion, absorption and circulation of alpha-ET, beta-ET and ET-dione; conditions: for oxidation at the C-3 position to ET-dione: orally or parenterally (i.p., i.m. or i.v.)
# From the text: This is the subject of U.S. application Ser. No. 078,610, filed July 28, 1987 and incorporated herein by reference.
# [6] = genetically obese mice, variety of routes; cited from earlier work
# [7] = genetically obese or diabetic mice; cited from earlier work
# [8] = oral, severely diabetic mammals; cited from earlier work
# [9] = A^vy /A mice, 0.4% ET-dione
# From the text: Inhibition of the development of obesity was studied in two mutant mouse strains used for diabetes evaluation: C57BL/6, C3HeB/FeJ (A^vy /A). […] C57BL/6 mice (Jackson Laboratories, Bar Harbor, ME) display the genetic obesity syndrome markers obese (ob) and diabetes (db) A^vy /A mice (Jackson Laboratories, Bar Harbor, ME) are characterized by mild obesity and an enhanced susceptibility to certain tumors.
# days during week 4 and were then returned to the 0.4% dose level.
# [10] = Body weight in C57BL/K db/db diabetic mice on ET-dione chow; assay type: in vivo, mouse (C57BL/K db/db); conditions: for 6 wk gain: 6 weeks
# From the text: (§1) Eighteen C57BL/K db/db mice were divided into three groups of 5 and one group (control) of 3. This mouse strain is more diabetic and more resistant to weight gain reduction than the mouse species used in Example 1. The mice were weighed and then permitted to consume a commercially-available chow and water ad librium over a six-week study period. At the end of each week, the mice were reweighed and their blood sugar determined. The chow supplied to three of the groups had ET-dione admixed therewith at either a 0.4, 0.6 or 0 8% concentration.
# [11] = rat, before feeding program
# Procedure: Food consumption and body weight were measured weekly. […] Liver weight (absolute and % of body weight), total cholesterol, % of esterified cholesterol and triglycerides in the liver were also determined. In addition, epididymal fat pad weights were measured.
# [12] = not given; remark: listed apart in the source
# [13] = Blood sugar in C57BL/K db/db diabetic mice on ET-dione chow; assay type: in vivo, mouse (C57BL/K db/db); set-up: Blood Sugar: unit not given here
# From the text: as §1
structure (smiles),measurement,setting,value
"C[C@]12CC[C@@H](O)C[C@H]1CC[C@@H]1[C@@H]2CC[C@]2(C)C(=O)CC[C@@H]12 [Alpha-ET, 5-beta-androstan-3-alpha-ol-17-one]",levels of conjugated alpha-ET relative to free alpha-ET,[1]; 30 minutes post-administration,2-5 times
same,anti-obesity properties,[2],effective both in preventing and in arresting the development of obesity
same,urinary excretion,[3],3-5 mg per day
same,% W vs Control Day 28,"0.2% in diet, day 28",-9.8%
same,Blood Sugar,[4],reduced blood sugar
same,effectiveness vs DHEA in preventing the development of diabetes,[4],four time more effective than DHEA
same,plasma insulin concentrations,[4],increased plasma insulin concentrations
same,protective effect on the pancreas (granules in islet beta cells),[4],protective effect on the pancreas
same,oxidation at the C-3 position to ET-dione,[5],rapidly oxidized at the C-3 position to ET-dione
"C[C@]12CC[C@H](O)C[C@H]1CC[C@@H]1[C@@H]2CC[C@]2(C)C(=O)CC[C@@H]12 [Beta-ET, 5-beta-androstan-3-beta-ol-17-one]",anti-obesity properties,[2],effective both in preventing and in arresting the development of obesity
same,Blood Sugar,[4],reduced blood sugar
same,effectiveness vs DHEA in preventing the development of diabetes,[4],four time more effective than DHEA
same,plasma insulin concentrations,[4],increased plasma insulin concentrations
same,protective effect on the pancreas (granules in islet beta cells),[4],protective effect on the pancreas
same,oxidation at the C-3 position to ET-dione,[5],rapidly oxidized at the C-3 position to ET-dione
"C[C@]12CC[C@H](O)CC1=CC[C@@H]1[C@@H]2CC[C@]2(C)C(=O)CC[C@@H]12 [DHEA, 3-beta-hydroxyandrost-5-en-17-one]",rate of weight gain,[6],decreased the rate of weight gain
same,preventive effect on the development of diabetes,[7],marked preventive effect on the development of diabetes
same,glucose tolerance,[8],improved glucose tolerance
same,hyperglycemia,[8],restored hyperglycemia to normal levels
"C[C@]12CCC(=O)C[C@H]1CC[C@@H]1[C@@H]2CC[C@]2(C)C(=O)CC[C@@H]12 [ET-dione, 5-beta-androstanedione]",blood levels of alpha-ET over equivalent dosages of alpha-ET,[1],significantly enhanced blood levels of alpha-ET
same,"amounts of alpha-ET in blood, in words",[1]; 15 minutes to approximately 1 hour after administration,significantly higher amounts of alpha-ET
same,"free alpha-ET levels, in words, vs alpha-ET or beta-ET administration",[1]; four hours post-administration,significantly higher than from alpha-ET or beta-ET administration
same,"effectiveness vs 0.1% alpha- and beta-ET, in words",[9],comparable in effectiveness to 0.1% alpha- and beta-ET
same,6 wk gain,[10]; 0.4% ET-dione in chow,26.1 g
same,Body Weight,"[10]; 0.4% ET-dione in chow, start",19.6 ± 1.8 g
same,Body Weight,"[10]; 0.4% ET-dione in chow, week 1",26.7 ± 1.7 g
same,Body Weight,"[10]; 0.4% ET-dione in chow, week 2",29.8 ± 1.2 g
same,Body Weight,"[10]; 0.4% ET-dione in chow, week 3",34.4 ± 0.83 g
same,Body Weight,"[10]; 0.4% ET-dione in chow, week 4",36.5 ± 0.8 g
same,Body Weight,"[10]; 0.4% ET-dione in chow, week 5",42.2 ± 1.0 g
same,Body Weight,"[10]; 0.4% ET-dione in chow, week 6",45.7 ± 0.7 g
same,6 wk gain,[10]; 0.6% ET-dione in chow,24.1 g
same,Body Weight,"[10]; 0.6% ET-dione in chow, start",18.1 ± 1.6 g
same,Body Weight,"[10]; 0.6% ET-dione in chow, week 1",23.7 ± 1.9 g
same,Body Weight,"[10]; 0.6% ET-dione in chow, week 2",27.3 ± 1.8 g
same,Body Weight,"[10]; 0.6% ET-dione in chow, week 3",31.9 ± 1.9 g
same,Body Weight,"[10]; 0.6% ET-dione in chow, week 4",34.7 ± 1.9 g
same,Body Weight,"[10]; 0.6% ET-dione in chow, week 5",39.1 ± 1.6 g
same,Body Weight,"[10]; 0.6% ET-dione in chow, week 6",42.2 ± 0.9 g
same,6 wk gain,[10]; 0.8% ET-dione in chow,21.7 g
same,Body Weight,"[10]; 0.8% ET-dione in chow, start",18.1 ± 1.0 g
same,Body Weight,"[10]; 0.8% ET-dione in chow, week 1",23.3 ± 0.7 g
same,Body Weight,"[10]; 0.8% ET-dione in chow, week 2",26.4 ± 0.6 g
same,Body Weight,"[10]; 0.8% ET-dione in chow, week 3",31.1 ± 0.76 g
same,Body Weight,"[10]; 0.8% ET-dione in chow, week 4",33.5 ± 0.91 g
same,Body Weight,"[10]; 0.8% ET-dione in chow, week 5",37.0 ± 0.9 g
same,Body Weight,"[10]; 0.8% ET-dione in chow, week 6",39.8 ± 1.2 g
same,"six-week weight gain, in words","[10]; ET-dione in chow, 0.4-0.8%",reduced the six-week weight gain
same,"RIA value for alpha-ET, initial",[11],approximately 40 nanograms per deciliter
same,effectiveness on weight gain relative to alpha-ET,all concentrations tested,almost twice as effective as alpha-ET
same,effectiveness relative to alpha-ET (general statement),"rat, in vivo","equally or, in some cases, almost twice as effective"
same,"Food consumption, Av. Wks 1-4","[12]; 0.4% in diet, average weeks 1-4",22.0 g/day
same,effectiveness in reducing food consumption relative to alpha-ET,[12]; second rat study,equally effective as alpha-ET in reducing food consumption
same,blood levels of free alpha-ET,[5]; animal and human pharmacokinetic data,increased blood levels of free alpha-ET
same,Blood Sugar,"[13]; 0.4% ET-dione in chow, week 1",149 ± 3.9
same,Blood Sugar,"[13]; 0.4% ET-dione in chow, week 2",156 ± 8.3
same,Blood Sugar,"[13]; 0.4% ET-dione in chow, week 3",151 ± 6.3
same,Blood Sugar,"[13]; 0.4% ET-dione in chow, week 4",148 ± 5.6
same,Blood Sugar,"[13]; 0.4% ET-dione in chow, week 5",148 ± 17.2
same,Blood Sugar,"[13]; 0.4% ET-dione in chow, week 6",168 ± 24.5
same,Blood Sugar,"[13]; 0.6% ET-dione in chow, week 1",143 ± 9.0
same,Blood Sugar,"[13]; 0.6% ET-dione in chow, week 2",124 ± 10.7
same,Blood Sugar,"[13]; 0.6% ET-dione in chow, week 3",151 ± 11.5
same,Blood Sugar,"[13]; 0.6% ET-dione in chow, week 4",152 ± 3.7
same,Blood Sugar,"[13]; 0.6% ET-dione in chow, week 5",159 ± 17
same,Blood Sugar,"[13]; 0.6% ET-dione in chow, week 6",195 ± 37
same,Blood Sugar,"[13]; 0.8% ET-dione in chow, week 1",128 ± 5.0
same,Blood Sugar,"[13]; 0.8% ET-dione in chow, week 2",126 ± 6.8
same,Blood Sugar,"[13]; 0.8% ET-dione in chow, week 3",147 ± 4.2
same,Blood Sugar,"[13]; 0.8% ET-dione in chow, week 4",148 ± 3.7
same,Blood Sugar,"[13]; 0.8% ET-dione in chow, week 5",137 ± 6.7
same,Blood Sugar,"[13]; 0.8% ET-dione in chow, week 6",184 ± 31
same,"blood sugar level vs untreated mice, in words","[13]; ET-dione in chow, 0.4-0.8%",roughly half that of the untreated mice
"C[C@]12CC[C@@H](O)C[C@@H]1CC[C@@H]1[C@@H]2CC[C@]2(C)C(=O)CC[C@@H]12 [androsterone, reference compound]",effectiveness vs DHEA in preventing the development of diabetes,[4],not
"C[C@]12CC[C@H](O)C[C@@H]1CC[C@@H]1[C@@H]2CC[C@]2(C)C(=O)CC[C@@H]12 [epiandrosterone, reference compound]",effectiveness vs DHEA in preventing the development of diabetes,[4],not
